According to US20060223812A1, “Treating neurodegenerative conditions” (MAX-PLANCK-GESELLSCHAFT ZUR FORDERUNGDER WISSENSCHAFTEN, …, priority 2004, published 2006):
Read-outs that look alike come from different tables or passages of the source.

Columns and labels:
Format in all cases: biochemical
PHFs from K18 = molecular target: T1, PHFs from K18 (Homo sapiens, UniProt P10636); experiment: Thioflavine S assay, depolymerisation of pre-formed PHFs, K18
T1 construct: made in house; host or cells: E. coli
T1 sequence (P10636 561-685 limits assumed): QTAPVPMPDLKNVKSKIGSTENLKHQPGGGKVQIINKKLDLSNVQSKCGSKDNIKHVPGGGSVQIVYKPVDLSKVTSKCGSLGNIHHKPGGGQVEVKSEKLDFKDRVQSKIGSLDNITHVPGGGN
Excerpt: (§1) The ThS assay was used to analyse the ability of the five compounds (see Example 4) to depolymerise pre-formed PHFs made from the repeat domain constructs K19 and K18 as well as from isoforms htau23 and htau24, containing 3 or 4 repeats, respectively.
The depolymerisation of K19 filaments (FIG. 4A) followed a similar concentration dependence as the inhibition experiment, with consistently similar or slightly higher DC50 values than the corresponding IC50 concentrations (Table 2). The ratios of IC50/DC50 range from 0.2-1.2. […] Here, too, the concentration dependence for K19 was steeper than for K18 (compare FIGS. 4A, B), similar to that of assembly inhibition (FIGS. 2A, B).
(§2) Tau constructs and isoforms K19, K18, hTau23, hTau24 (10 μM) were first aggregated into PHFs for 48 hours in the presence of 2.5 μM heparin (except K18/ΔK280) and the polymers separated from the soluble tau by centrifugation of 1 h at 100,000 g, redissolved and then exposed to the inhibitors overnight at 37° C. at the indicated concentrations (range 0.001-200 μM). The compounds are capable of disassembling PHFs with varying efficiencies (see Table 2).

PHFs from htau24 = molecular target: T2, PHFs from htau24 (Homo sapiens, UniProt P10636); experiment: Thioflavine S assay, depolymerisation of pre-formed PHFs, htau24
T2 construct: made in house; host or cells: E. coli
T2 sequence (P10636 1-383 isoform P10636-6): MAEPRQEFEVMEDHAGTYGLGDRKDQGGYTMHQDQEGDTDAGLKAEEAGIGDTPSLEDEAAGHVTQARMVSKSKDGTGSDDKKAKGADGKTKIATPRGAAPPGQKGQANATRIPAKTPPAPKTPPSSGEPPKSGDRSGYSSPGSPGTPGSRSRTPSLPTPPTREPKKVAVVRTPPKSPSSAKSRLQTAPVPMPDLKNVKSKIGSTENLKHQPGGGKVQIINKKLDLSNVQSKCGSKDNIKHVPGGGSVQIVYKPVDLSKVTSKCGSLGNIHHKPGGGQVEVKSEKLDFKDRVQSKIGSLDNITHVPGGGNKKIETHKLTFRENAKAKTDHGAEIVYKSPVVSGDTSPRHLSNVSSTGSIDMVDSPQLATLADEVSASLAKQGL
Experimental: as §1
as §2, with “μM).” for “μM). The compounds are capable of disassembling PHFs with varying efficiencies (see Table 2).”

PHFs from htau23 = molecular target: T3, PHFs from htau23 (Homo sapiens, UniProt P10636); experiment: Thioflavine S assay, depolymerisation of pre-formed PHFs, htau23
T3 construct: made in house; host or cells: E. coli
T3 sequence (P10636 1-352 isoform P10636-2): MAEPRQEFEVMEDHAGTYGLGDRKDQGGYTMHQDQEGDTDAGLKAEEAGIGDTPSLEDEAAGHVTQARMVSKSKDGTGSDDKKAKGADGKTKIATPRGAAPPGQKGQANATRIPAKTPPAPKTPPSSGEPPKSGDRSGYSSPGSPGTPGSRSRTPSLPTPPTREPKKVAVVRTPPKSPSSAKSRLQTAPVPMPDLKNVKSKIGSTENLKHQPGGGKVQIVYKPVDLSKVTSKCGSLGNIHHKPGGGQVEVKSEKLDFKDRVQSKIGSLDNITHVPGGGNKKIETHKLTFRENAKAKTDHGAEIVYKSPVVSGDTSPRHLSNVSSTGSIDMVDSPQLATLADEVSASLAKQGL
Experimental: as §1
PHFs assembled from the full length three repeat isoform htau23 were also sensitive to disaggregation (FIG. 4C). The DC50 values ranged from 7.0 to 60 μM.
as §2, with “μM).” for “μM). The compounds are capable of disassembling PHFs with varying efficiencies (see Table 2).”

Aβ1-40 peptide = molecular target: T4, Aβ1-40 peptide (Homo sapiens, UniProt P05067); experiment: Aβ fibre aggregation inhibition (thioflavine T); details: 60 μM compound
T4 construct: Commercial human Aβ1-40 was obtained from Calbiochem; purchased Calbiochem
T4 sequence (P05067 672-711): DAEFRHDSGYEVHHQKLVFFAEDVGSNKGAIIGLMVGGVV
Experimental: Besides the activity of the compounds towards tau fibres, their specificity is an important issue, i.e. the ability to discriminate between different types of aggregates. Therefore, an analysis of the influence of the compounds (60 μM) on amyloid fibrils made from the Aβ1-40 peptide, both in terms of inhibition of de novo filament formation and depolymerisation was performed (FIGS. 8A-B). These fibres are also abundant in Alzheimer brain and contain a core of cross-β-structure, but are located outside the cells, in contrast to the intracellular PHFs.
Commercial human Aβ1-40 was obtained from Calbiochem (Schwalbach, Germany) and stored at −20° C. The AD peptide was routinely dissolved in 100% DMSO to obtain a 2 mM stock solution, which was subsequently stored frozen at −20° C. 5 μl from the 2 mM Aβ stock solution was added to 90 μl of 25 mM phosphate buffer containing 120 mM NaCl, and 0.02% sodium azide, final pH 7.4 and 5 μl of 100% DMSO so that the final DMSO concentration was 10% v/v, and the protein concentration was adjusted to 100 μM. Incubations were at room temperature. In order to accelerate aggregation tubes were put on a lab shaker and agitated at moderate speed. For analysis 5 μl of this solution were added to 45 μl 10 mM phosphate buffer containing 6 μM thioflavine T, pH 6.0, after 30 minutes incubation at room temperature the fluorescence was measured at 504 nm emission by an excitation of 409 nm. To correlate fibril morphology with the fluorescence signal, aliquots of the Aβ1-40 solutions were simultaneously prepared for electron microscopy. The inhibition of fibril formation and disassembly of pre-formed Aβ-fibrils were carried out in triplicates with 60 μM compound and 10 μM protein.
Aβ peptide 1-40 (10 μM) was incubated with moderate shaking overnight at room temperature and incubated with various compounds (60 μM) overnight.

[1] = ThS fluorescence, overnight 37° C., read-out: Depolymerisation of PHFs DC50, K18
[2] = ThS fluorescence, pre-formed PHFs; read-out: Depolymerisation of PHFs DC50, hTau24
[3] = ThS fluorescence, read-out: Depolymerisation of PHFs DC50, hTau23

## COc1cccc2c1C(=O)c1c(O)c3c(c(O)c1C2=O)CC(O)(C(=O)CO)CC3OC1CC(N)C(O)C(C)O1 (stereo not drawn) [Adriamycin, 10-(4-Amino-5-hydroxy-6-methyl-tetrahydro-pyran-2-yloxy)-6,8,11-trihydroxy-8-(2-hydroxyethanoyl)-1-methoxy-7,8,9,10-tetrahydro-naphthacene-5,12-dione, reference compound]
PHFs from K18; read-out: Depolymerisation of PHFs DC50, K18, ThS fluorescence, overnight 37° C.
  DC50: 4.3 µM
PHFs from htau24; read-out: Depolymerisation of PHFs DC50, hTau24; ThS fluorescence, pre-formed PHFs
  DC50: > 60 µM
PHFs from htau23; read-out: Depolymerisation of PHFs DC50, hTau23, ThS fluorescence
  DC50: 13.2 µM

## COc1cccc2c1C(=O)c1c(O)c3c(c(O)c1C2=O)CC(O)(C(C)=O)CC3OC1CC(N)C(O)C(C)O1 (stereo not drawn) [Daunorubicin, 8-Acetyl-10-(4-amino-5-hydroxy-6-methyl-tetrahydro-pyran-2-yloxy)-6,8,11-trihydroxy-1-methoxy-7,8,9,10-tetrahydro-naphthacene-5,12-dione, reference compound]
PHFs from K18; [1]
  DC50: 4 µM
PHFs from htau24
  depolymerisation of htau24 filaments: only weak PHF breakers
PHFs from htau24; [2]
  DC50: > 60 µM
PHFs from htau23; [3]
  DC50: 8.2 µM
Aβ1-40 peptide
  inhibition of Aβ fibre aggregation: most efficient

## Cc1cc(O)c2c(c1)C(=O)c1cc(O)cc(O)c1C2=O [Emodin, 1,3,8-Trihydroxy-6-methyl-anthraquinone]
PHFs from K18; [1]
  DC50: 2 µM
PHFs from htau24
  depolymerisation of htau24 filaments: only weak PHF breakers
PHFs from htau24; [2]
  DC50: > 60 µM
PHFs from htau23; [3]
  DC50: 7 µM
Aβ1-40 peptide
  inhibition of Aβ fibre aggregation: most efficient

## O=C(c1ccccc1)c1ccc(O)c(O)c1O [PHF005, 1-Phenyl-1-(2,3,4-trihydroxy-phenyl)-methanone]
PHFs from K18; [1]
  DC50: 20.8 µM
PHFs from htau24; [2]
  DC50: 10.8 µM
PHFs from htau23; [3]
  DC50: > 60 µM
Aβ1-40 peptide; 10 μM Aβ1-40, read-out: inhibition of Aβ filament formation
  inhibition at 60 µM: ~50%

## O=C1c2ccc(O)c(O)c2C(=O)c2c(O)ccc(O)c21 [PHF016, 1,2,5,8-Tetrahydroxy-anthraquinone]
PHFs from K18; [1]
  DC50: 7.3 µM
PHFs from htau24; [2]
  DC50: 39.2 µM
PHFs from htau23; [3]
  DC50: > 60 µM
Aβ1-40 peptide
  inhibition of Aβ fibre aggregation: most efficient
